# Measured values taken from the supplement of paper PMC10307832.
# Columns and labels:
# Test in all cases: relative viability (nuclei count vs DMSO), 5 days (fraction); higher = more cells survive
# [1] = compound: C1COCCN1C2=NC(=NC3=C2OC4=C3C=CC=N4)C5=CC(=CC=C5)NC(=O)C6=CN=C(C=C6)N + CC(=O)c1c(C)c2cnc(Nc3ccc(N4CCNCC4)cn3)nc2n(C2CCCC2)c1=O [Palbociclib] (partner 0.5 µM)
# Summary of the method: (§1)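 Lung cancer cell lines, seeded in 1536-well plates, were treated the following day by pin tool with a single drug or with five library-drug doses (not always all listed) in √10 steps on top of a fixed anchor-drug dose. Cells were fixed and nuclei stained in one step after 5 days, and nuclei were counted. Relative viability is the nuclei count for treated wells divided by that for vehicle wells, reported as medians of duplicate plates.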
# [2] = compound: C1COCCN1C2=NC(=NC3=C2OC4=C3C=CC=N4)C5=CC(=CC=C5)NC(=O)C6=CN=C(C=C6)N + CC(C)C[C@H](NC(=O)[C@H](Cc1ccccc1)NC(=O)c1cnccn1)B(O)O [Bortezomib] (partner 0.002 µM)
# Summary of the method: as §1
# SGI-1776 + Linsitinib = compound: CN1CCC(CNc2ccc3ncc(-c4cccc(OC(F)(F)F)c4)n3n2)CC1 [SGI-1776] + C[C@]1(O)C[C@@H](c2nc(-c3ccc4ccc(-c5ccccc5)nc4c3)c3c(N)nccn32)C1 [Linsitinib] (partner 1 µM)
# Summary of the method: as §1
# Entinostat + OSI-027 = compound: Nc1ccccc1NC(=O)c1ccc(CNC(=O)OCc2cccnc2)cc1 [Entinostat] + COc1cccc2cc(-c3nc([C@H]4CC[C@H](C(=O)O)CC4)n4ncnc(N)c34)[nH]c12 [OSI-027] (partner 0.5 µM)
# Summary of the method: as §1
Cell Line,relative viability ([1]; first compound 0.02 µM),relative viability ([1]; first compound 0.06325 µM),relative viability ([1]; first compound 0.2 µM),relative viability ([1]; first compound 0.6325 µM),relative viability ([1]; first compound 2 µM),relative viability ([2]; first compound 0.02 µM),relative viability ([2]; first compound 0.06325 µM),relative viability ([2]; first compound 0.2 µM),relative viability ([2]; first compound 0.6325 µM),relative viability ([2]; first compound 2 µM),relative viability (SGI-1776 + Linsitinib; first compound 0.08 µM),relative viability (SGI-1776 + Linsitinib; first compound 0.8 µM),relative viability (SGI-1776 + Linsitinib; first compound 2.53 µM),relative viability (SGI-1776 + Linsitinib; first compound 8 µM),relative viability (Entinostat + OSI-027; first compound 0.02 µM),relative viability (Entinostat + OSI-027; first compound 0.06325 µM),relative viability (Entinostat + OSI-027; first compound 0.2 µM),relative viability (Entinostat + OSI-027; first compound 0.6325 µM),relative viability (Entinostat + OSI-027; first compound 2 µM)
201T,0.357,0.358,0.372,0.346,0.324,0.994,1.1,1.02,1.11,0.97,1.05,1.01,0.968,0.87,0.92,0.726,0.619,0.548,0.45
A549,,,,,,,,,,,0.672,0.574,0.518,0.48,,,,,
A-427,0.517,0.524,0.496,0.512,0.454,0.981,1.02,0.945,0.91,0.652,1.13,1.19,1.16,1.07,0.505,0.489,0.403,0.395,0.343
ABC-1,0.562,0.658,0.55,0.7,0.471,0.311,0.315,0.288,0.298,0.302,0.745,0.895,0.883,0.742,0.446,0.524,0.544,0.351,0.247
BEN,0.465,0.44,0.498,0.464,0.425,0.961,0.738,0.764,0.761,0.711,0.931,0.789,0.796,0.646,0.271,0.353,0.323,0.302,0.217
CAL-12T,0.351,0.44,0.285,0.398,0.326,0.935,0.98,0.861,0.871,0.84,0.916,0.821,0.821,0.756,0.583,0.719,0.698,0.601,0.305
COR-L23,0.262,0.314,0.3,0.307,0.229,1.13,1.18,1.08,1.13,0.474,0.886,0.965,0.864,0.668,0.67,0.599,0.621,0.291,0.264
COR-L 105,0.413,0.403,0.371,0.363,0.359,0.655,0.872,0.657,0.66,0.474,1.1,0.927,0.874,0.717,0.735,0.875,0.977,0.688,0.297
Calu-6,,,,,,1.1,1.18,0.919,0.957,0.806,1.07,0.986,0.997,0.818,,,,,
ChaGo-K-1,0.994,0.983,0.968,0.835,0.502,0.938,1.01,0.568,1.12,0.746,,,,,0.606,0.513,0.56,0.436,0.378
EBC-1,,,,,,0.541,0.521,0.431,0.455,0.417,0.969,0.85,1.02,0.675,,,,,
EKVX,0.357,0.393,0.353,0.373,0.438,1.09,1.19,1.02,1.11,0.585,1.1,0.985,1.01,0.863,0.751,0.738,0.805,0.511,0.318
EMC-BAC-2,0.54,0.545,0.501,0.498,0.456,1.1,1.14,1.06,1,0.784,0.868,0.846,0.838,0.737,0.376,0.423,0.368,0.305,0.256
EPLC-272H,0.313,,0.313,0.37,0.329,0.965,0.994,0.816,0.931,0.558,1.18,1.19,1.34,1.11,0.285,0.359,0.314,0.245,0.214
H3255,0.308,0.308,0.306,0.308,0.305,0.622,0.718,0.687,0.805,0.611,1.1,1.04,0.921,0.792,0.589,0.582,0.503,0.309,0.232
HARA,0.207,0.242,0.246,,0.263,1.14,1.35,1.24,1,0.875,1.11,0.921,0.909,0.945,0.448,0.529,0.551,0.299,0.194
HCC-15,0.742,0.775,0.67,0.682,0.574,1.03,1.04,0.994,1.05,0.677,0.866,0.942,0.87,0.657,0.669,0.617,0.583,0.347,0.239
HCC-44,0.952,0.987,0.96,1.01,1.01,0.933,1,0.849,0.943,0.726,0.73,0.709,0.644,0.641,0.53,0.518,0.333,0.182,0.176
HCC-78,0.48,0.484,0.476,0.427,0.378,0.394,0.61,0.555,0.444,0.497,0.582,0.432,0.449,0.403,0.402,0.33,0.351,0.344,0.261
